Values joined by “and” are separate entries in the source; they are usually repeats but may differ in a detail not shown here. Equal values may be shown once. Read-outs that look alike come from different tables or passages of the source.
Assay: in vivo
Type: in vivo
Conditions: rat; for Tmax: read-out: tmax (converted); for half-life: mean n=3, read-out: t1/2
Protocol: […] Whole blood samples were taken from a lateral tail vein for plasma separation at time points 0 min, 30 min, 1 h, 2 h and 4 h after p.o. dosing; and 0 min, 15 min, 30 min, 1 h, and 2 h after i.v. dosing, while the terminal samples at time point 6 h after dosing (p.o and Lv.) were taken by cardiac puncture. All time points were taken from a single rat, and all experiments were carried out in triplicate.
The samples were thawn at room temperature and prepared by protein precipitation with ratio 1:2 of plasma and acetonitrile and were centrifuged 10 minutes at 16 100×g (Eppendorf 5415D, Eppendorf AG, Hamburg, Germany) before injection to UPLCIMSMS system. The standard samples were prepared similarly, after spiking blank plasma samples to 0.5, 2, 5, 10, 20, 50, 200, 500, 1000 and 2000 ng/ml of the analyte compounds.
The pharmacokinetic parameters for study compounds were calculated by WinNonlin Pro (Pharsight Corp, CA) using standard noncompartmental methods. The volume of distribution (Vd) was based on the terminal phase. The elimination phase half-life (t1/2) was calculated by least-squares regression analysis of the terminal linear part of the log concentration-time curve. The area under the plasma concentration-time curve (AUC) was determined by use of the linear trapezoidal rule up to the last measurable concentration and thereafter by extrapolation of the terminal elimination phase to infinity. The area under the plasma concentration-time curve without terminal extrapolation is reported as AUC 0-6 h. The mean residence time (MRT) representing the average amount of time a compound remains in a compartment or system was calculated extrapolating the drug concentration profile to infinity. The maximum plasma concentration (cmax) and the time to cmax (tmax) were derived directly from the plasma concentration data. The tentative oral bioavailability (F) was calculated by dividing the AUC after p.o. administration by the AUC after i.v. administration taking into account the differences in dose, i.e. F=AUC(p.o.)/Dose(p.o.)/AUC(i.v)/[…], and reported as percentages (%).
A Waters Acquity chromatographic system (Waters Corp., Milford, Mass., USA) with autosampler, vacuum degasser and column oven was used. The analytical column used for all compounds was a Waters BEH ShieldRP18, (2.1×50 mm, 1.7 μm, Waters Corp, Milford, Mass., USA) together with an on-line filter. The eluents were 0.1% acetic acid (A, pH 3.2) and acetonitrile (B). A linear gradient elution from 5% B to 35% B in 0-2 minutes, from 35% B to 85% B in 2.0-3.0 min was employed, followed by 1 min isocratic elution with […] and column equilibration. The flow rate was 0.5 ml/min and the column oven temperature was 35° C. LC/MS/MS/data was acquired with a Micromass Quattro Premier triple quadrupole mass spectrometer equipped with a LockSpray electrospray ionization source. A negative ion mode ionisation was used. The multiple reaction monitoring (MRM) mode of detection was used. The mass spectrometer and UPLC system were operated under Micromass MassLynx 4.1 software. Complete LC/MS/MS parameters are presented in Appendix I.
Detection/quantitation limits between 2 ng/ml and 10 ng/ml in plasma were obtained for each compound. Calibration curves for quantification were generated by fitting the ratio of the external standard peak areas as a function of the concentration, excluding the point of origin and using 1/x weighting and linear or quadratic fitting. The ranges up to 2000 ng/ml were fitted for calibration curves. […] The overall precisions 12.0-17.0% were calculated from the standard samples (two injection/concentration), using Snedecor equation S=(Σd^2/2n)^0.5, in which S=precision, d is the difference between duplicates expressed as % of the mean value, and N is the number of standard concentration. The concentrations of each study compound in the samples are shown in the Appendices IV-VI.

[1] = plasma, iv, i.v. 1 mg/kg, mean n=3
[2] = 1 mg/kg i.v., individual animals, 1 mg/kg
[3] = 8 mg/kg p.o., individual animals, 8 mg/kg

CC(C)c1cc(Cl)cc(C(C)C)c1O [4-Cl-propofol, 4-Chloropropofol]
clearance [1]: 148 mL/min/kg | Tmax [1]: 15 min | bioavailability (plasma, oral, 8 mg/kg p.o. vs 1 mg/kg i.v., read-out: F (%) tentative oral bioavailability): 72.4% | Tmax (plasma, po, p.o. 8 mg/kg, mean n=3): 30 min | tmax (1 mg/kg i.v., individual animals): 15 min | AUC [2]: 10.7 µg·min/mL and 5.43 µg·min/mL and 6.01 µg·min/mL | CL/F [2]: 93.2 mL/min/kg and 184 mL/min/kg and 166 mL/min/kg | MRT [2]: 31.8 min and 80.8 min and 33.6 min | cmax [2]: 170 ng/mL and 70 ng/mL and 90 ng/mL | t1/2 [2]: 16.3 min and 81.8 min and 48.2 min | tmax (8 mg/kg p.o., individual animals): 30 min | AUC [3]: 33.2 µg·min/mL and 34.9 µg·min/mL and 60.4 µg·min/mL | CL/F [3]: 229 mL/min/kg and 133 mL/min/kg | MRT [3]: 305 min and 760 min and 764 min | cmax [3]: 0.12 μg/mL (2×) and 0.05 μg/mL | t1/2 [3]: 205 min and 493 min and 496 min | ADC 0-6 h (i.v. 1 mg/kg, mean n=3): 6.29 µg·min/mL | AUC (i.v. 1 mg/kg, mean n=3): 7.39 µg·min/mL | CL/F (i.v. 1 mg/kg, mean n=3): 148 mL/min/kg | half life (in words) (i.v. dosing): intermediate | clearance (in words) (i.v. dosing, compared to rat liver blood flow): very high | concentration in plasma (iv (1 mg/kg), 15 min, individual animals, listed as CK1-1, 1 mg/kg): 172 ng/mL and 70.0 ng/mL and 94.3 ng/mL | concentration in plasma (iv (1 mg/kg), 30 min, individual animals, listed as CK1-1, 1 mg/kg): 26.1 ng/mL and 25.4 ng/mL | concentration in plasma (iv (1 mg/kg), 1 h, individual animals, listed as CK1-1, 1 mg/kg): 15.2 ng/mL and 16.5 ng/mL | concentration in plasma (iv (1 mg/kg), 2 h, individual animals, listed as CK1-1, 1 mg/kg): 33.7 ng/mL and 11.5 ng/mL | detection in plasma after oral (p.o.) administration (p.o.): observed in plasma | ADC 0-6 h (p.o. 8 mg/kg, mean n=3): 18.7 µg·min/mL | AUC (p.o. 8 mg/kg, mean n=3): 42.8 µg·min/mL | CL (p.o. 8 mg/kg, mean n=3): 146 mL/min/kg | Vd (p.o. 8 mg/kg, mean n=3): 79.6 L/kg | MRT (plasma, iv, 1 mg/kg, i.v. 1 mg/kg, mean n=3, read-out: MRT (converted)): 48.7 min | Vd (plasma, iv, 1 mg/kg, i.v. 1 mg/kg, mean n=3, read-out: Vd): 11.8 L/kg | cmax (plasma, iv, 1 mg/kg, i.v. 1 mg/kg, mean n=3, read-out: cmax): 110 ng/mL | half-life (plasma, iv, 1 mg/kg, i.v. 1 mg/kg): 48.8 min | concentration at 30 min (plasma, iv, 1 mg/kg, iv (1 mg/kg), 30 min, individual animals): 47.3 ng/mL | concentration at 1 h (plasma, iv, 1 mg/kg, iv (1 mg/kg), 1 h, individual animals): 13.2 ng/mL | CL/F (plasma, po, 8 mg/kg, 8 mg/kg p.o., individual animals, read-out: CL/F): 241 mL/min/kg | Vd/F (plasma, po, 8 mg/kg, p.o. 8 mg/kg, mean n=3): 110 L/kg | CL/F (plasma, po, 8 mg/kg, p.o. 8 mg/kg, mean n=3, read-out: CL/F): 201 mL/min/kg | MRT (plasma, po, 8 mg/kg, p.o. 8 mg/kg, mean n=3, read-out: MRT (converted)): 609 min | cmax (plasma, po, 8 mg/kg, p.o. 8 mg/kg, mean n=3, read-out: cmax): 100 ng/mL | half-life (plasma, po, 8 mg/kg, p.o. 8 mg/kg): 398 min | concentration at 4 h (plasma, po, 8 mg/kg, po (8 mg/kg), 4 h, individual animals): 61.8 ng/mL | concentration at 6 h (plasma, po, 8 mg/kg, po (8 mg/kg), 6 h, individual animals): 33.8 ng/mL | concentration in plasma (po (8 mg/kg), 30 min, individual animals, listed as CK1-1, 8 mg/kg): 121 ng/mL and 116 ng/mL and 51.0 ng/mL | concentration in plasma (po (8 mg/kg), 1 h, individual animals, listed as CK1-1, 8 mg/kg): 99.8 ng/mL and 47.3 ng/mL and 57.2 ng/mL | concentration in plasma (po (8 mg/kg), 2 h, individual animals, listed as CK1-1, 8 mg/kg): 64.3 ng/mL and 25.3 ng/mL and 52.3 ng/mL | concentration in plasma (po (8 mg/kg), 4 h, individual animals, listed as CK1-1, 8 mg/kg): 36.1 ng/mL and 55.1 ng/mL | concentration in plasma (po (8 mg/kg), 6 h, individual animals, listed as CK1-1, 8 mg/kg): 32.0 ng/mL and 55.3 ng/mL
